Consider seven molecules from ChEMBL document CHEMBL1201862, “PubChem BioAssay data set” (2004).

What all share (assay): inhibition of tumour cell growth, NCI panel, 48 h
For test [1], the system named is COLO 205.
Test [2] concerns SF-539.
In test [3] the test system is TK-10.
The test system of test [4] is MDA-N.
Test [5] relates to ACHN.
For test [6], the system named is HCT-15.
Test [7] deals with KM-20L2.
Test [8] relates to UACC-62.
Test [9] deals with MOLT-4.
The subject of test [10] is MCF7.
Test [11] has as its system OVCAR-5.
Test [12] concerns CAKI-1.
For test [13], the system named is UACC-257.
For test [14], the system named is EKVX.
The subject of test [15] is LOX IMVI.
For test [16], the system named is SF-295.
The subject of test [17] is K562.
The test system of test [18] is RPMI-8226.
Test [19] concerns DMS-273.
In test [20] the test system is SK-OV-3.

SMILES strings stand for the structures.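 Five concentrations, 48 hours, 96-well plates. GI50 = concentration required for 50% inhibition of growth.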 Calls of active or inactive are those of the source. No stated cut-off is given here; in the data, active = GI50 up to about 1.1 µM and inactive = higher.

For the molecule `COc1ccc(Nc2nnc(-c3nsc4ccccc34)s2)cc1`, the GI50 in test [1] is 63.7 µM (inactive); in test [2], 31.8 µM (inactive); in test [3], > 49.3 µM (inactive); in test [4] it was 76 µM (inactive); in test [5], 11.1 µM (inactive); in test [6], 62.8 µM. For the same molecule, the GI50 is > 100 µM (inactive) in test [7]; > 100 µM (inactive) in [8]; 46.5 µM (inactive) in [9]; 81.3 µM (inactive) in test [10]; > 100 µM (inactive) in test [11]; 54.5 µM (inactive) in test [12]. In addition, the GI50 in test [13] is > 100 µM (inactive); in [14], 58.6 µM (inactive); in test [15], 41.1 µM (inactive); in test [16], 10.8 µM (inactive); in [17] it was 47.2 µM (inactive); in test [18], 22.9 µM (inactive). Moreover, the GI50 is 47.1 µM (inactive) in [19] and 2.52 µM (inactive) in test [20].
`[O-][S+]1c2ccccc2N=C(c2ccc3ccccc3c2)CC1c1ccccc1F` (stereo not given): the GI50 in test [1] was > 100 µM (inactive); in [2] it was > 100 µM (inactive); in test [3], > 100 µM (inactive); in test [5] it was > 100 µM (inactive); in test [6], greater than 100 µM; in test [7], > 100 µM (inactive). Besides, the GI50 is > 100 µM (inactive) in [8]; 48.2 µM (inactive) in test [9]; > 100 µM (inactive) in test [11]; > 100 µM (inactive) in test [12]; > 100 µM (inactive) in [13]; > 100 µM (inactive) in test [14]. Further, the GI50 in [15] was > 100 µM (inactive); in test [16], > 100 µM (inactive); in [17] it was 78.2 µM (inactive); in test [18], 58.6 µM (inactive); in test [19], > 100 µM (inactive); in test [20] it was > 100 µM (inactive).
For `O=[N+]([O-])c1cc(I)cc(/C=N/NS(=O)(=O)c2ccc(F)cc2)c1O`, the GI50 in [1] is 18.3 µM (inactive); in [2], 27.1 µM (inactive); in test [3], 28.6 µM (inactive); in test [5] it was 30.7 µM (inactive); in [6] it was 27.3 µM; in test [7] it was 29.8 µM (inactive). The GI50 in [8] was 20.3 µM (inactive); in test [9], 24.7 µM (inactive); in test [11] it was 39 µM (inactive); in [12] it was 26.2 µM (inactive); in test [13], 25.2 µM (inactive); in [14], 30.7 µM (inactive). For the same molecule, the GI50 was 27 µM (inactive) in [15]; 33.2 µM (inactive) in test [16]; 21.6 µM (inactive) in test [17]; 22.1 µM (inactive) in test [18]; 21.5 µM (inactive) in test [19]; 27.4 µM (inactive) in [20].
`CN(C)CC1CCCC/C1=N/O` (stereo not given): the GI50 in test [1] was > 100 µM (inactive); in [2], > 100 µM (inactive); in [3], > 100 µM (inactive); in [5], > 100 µM (inactive); in test [6], greater than 100 µM; in [7], > 100 µM (inactive). Moreover, the GI50 in [8], in test [9], in [11], in test [12], in test [13] and in [14] was > 100 µM (inactive) in each case. The GI50 in test [15], in test [16], in [17], in test [18], in [19] and in test [20] was > 100 µM (inactive) in each case.
For `CC1OC(OC2C(OC(=O)[C@]34CCC(C)(C)CC3C3=CCC5[C@@]6(C)C[C@H](O)[C@H](OC7OC(COC8OC(CO)C(O)C(O)C8O)C(O)C(O)C7O)[C@@](C)(C(=O)O)C6CC[C@@]5(C)C3(C)CC4)OCC(O)C2O)C(O)C(O)C1OC1OCC(O)C(O)C1O` (stereo not given in full), the GI50 in test [1] was > 100 µM (inactive); in test [2], > 100 µM (inactive); in test [3], > 100 µM (inactive); in test [5], > 100 µM (inactive); in test [6], greater than 100 µM; in test [7], > 100 µM (inactive). In addition, the GI50 in [8], in [9], in test [11], in [12], in test [13] and in test [14] was > 100 µM (inactive) each time. Also, the GI50 in [15], in test [16], in test [17], in test [18], in test [19] and in test [20] was > 100 µM (inactive) each time.
As to `O=[N+]([O-])c1ccc(-c2csc(=[N+]3CCCCC3)s2)cc1`, the GI50 in test [1] was 2.26 µM (inactive); in [2], 19.8 µM (inactive); in test [3], > 83.4 µM (inactive); in [5], 40.6 µM (inactive); in test [6], 29.2 µM; in test [7] it was 6.1 µM (inactive). Besides, the GI50 in [8] was 34.4 µM (inactive); in [9] it was 5.38 µM (inactive); in [11] it was 9.75 µM (inactive); in [12], 75.7 µM (inactive); in [13], 2.08 µM (inactive); in test [14], 18 µM (inactive). Besides, the GI50 in [15] is 26.1 µM (inactive); in test [16], 2.71 µM (inactive); in test [17] it was 9.71 µM (inactive); in [18] it was 20.2 µM (inactive); in test [19] it was 28.8 µM (inactive); in test [20] it was 37.7 µM (inactive).
Take `COc1c(Cl)cc(NC(=S)C#N)cc1Cl`: the GI50 in [1] was 17.8 µM (inactive); in [2] it was 23.8 µM (inactive); in test [3] it was 33.8 µM (inactive); in test [4], 25.5 µM (inactive); in test [5], 25.6 µM (inactive); in test [6], 18.4 µM. Moreover, the GI50 in test [7] was 20.1 µM (inactive); in test [8], 15.1 µM (inactive); in test [9], 32.9 µM (inactive); in test [10], 24.4 µM (inactive); in test [11], 37.1 µM (inactive); in test [12] it was 22.7 µM (inactive). For the same molecule, the GI50 was 19.9 µM (inactive) in test [13]; 22.2 µM (inactive) in test [14]; 20 µM (inactive) in [15]; 29.5 µM (inactive) in test [16]; > 52.2 µM (inactive) in test [17]; 22.8 µM (inactive) in [18]. Besides, the values for the GI50 in [19] and in test [20] were 30.3 µM (inactive) and 29.7 µM (inactive), respectively.
